Test results from paper PMC5513037, “Examining the influence of specificity ligands and ATP-competitive ligands on the overall effectiveness of bivalent kinase inhibitors” (Proteome Science, 2017).

Legend:
Assay in all cases: KAM-matrix competition in K562 lysate;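 on 0.001 uM KAM: median log10 fold change of treatment over DMSO control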;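 on 0.01 uM KAM: median log10 fold change of treatment over DMSO control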;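 on 0.1 uM KAM: median log10 fold change of treatment over DMSO control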;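 on 1 uM KAM: median log10 fold change of treatment over DMSO control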;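 on 10 uM KAM: median log10 fold change of treatment over DMSO control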
Type in all cases: binding
[1] = biological target: T1, BTK (Homo sapiens, UniProt Q06187)
T1 construct: endogenous in cells; host or cells: K562
T1 sequence (Q06187 whole entry): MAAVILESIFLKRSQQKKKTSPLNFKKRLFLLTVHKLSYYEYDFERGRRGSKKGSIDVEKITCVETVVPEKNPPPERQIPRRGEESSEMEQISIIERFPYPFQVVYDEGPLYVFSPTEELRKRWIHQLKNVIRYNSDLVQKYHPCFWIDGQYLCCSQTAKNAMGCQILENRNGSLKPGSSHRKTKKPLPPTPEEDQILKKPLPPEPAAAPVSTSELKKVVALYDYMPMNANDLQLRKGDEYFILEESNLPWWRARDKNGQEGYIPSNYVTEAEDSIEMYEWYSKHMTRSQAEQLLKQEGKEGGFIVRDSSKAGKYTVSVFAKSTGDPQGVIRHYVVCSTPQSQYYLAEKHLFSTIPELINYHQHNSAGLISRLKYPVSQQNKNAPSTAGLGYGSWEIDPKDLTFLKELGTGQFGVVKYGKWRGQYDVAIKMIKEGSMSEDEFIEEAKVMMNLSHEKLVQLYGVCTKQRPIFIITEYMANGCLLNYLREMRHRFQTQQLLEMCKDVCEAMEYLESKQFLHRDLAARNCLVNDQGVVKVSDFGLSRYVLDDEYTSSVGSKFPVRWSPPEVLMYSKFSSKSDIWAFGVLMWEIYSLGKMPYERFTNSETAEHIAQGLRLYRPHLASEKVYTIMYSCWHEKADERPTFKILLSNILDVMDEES
Method: (§1) Supplement 12953_2017_125_MOESM1_ESM.zip/MS_Supp Info.xlsx, sheet "KAM" | column: 10 uM KAM; 1 uM KAM; 0.1 uM KAM; 0.01 uM KAM; 0.001 uM KAM; RB50

[2] = biological target: T2, CAMK1 (Homo sapiens, UniProt Q14012);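 on 0.001 uM KAM: median log10 fold change of treatment over DMSO control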;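 on 0.01 uM KAM: median log10 fold change of treatment over DMSO control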;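 on 0.1 uM KAM: median log10 fold change of treatment over DMSO control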;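 on 1 uM KAM: median log10 fold change of treatment over DMSO control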;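 on 10 uM KAM: median log10 fold change of treatment over DMSO control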
T2 construct: endogenous in cells; host or cells: K562
T2 sequence (Q14012 whole entry): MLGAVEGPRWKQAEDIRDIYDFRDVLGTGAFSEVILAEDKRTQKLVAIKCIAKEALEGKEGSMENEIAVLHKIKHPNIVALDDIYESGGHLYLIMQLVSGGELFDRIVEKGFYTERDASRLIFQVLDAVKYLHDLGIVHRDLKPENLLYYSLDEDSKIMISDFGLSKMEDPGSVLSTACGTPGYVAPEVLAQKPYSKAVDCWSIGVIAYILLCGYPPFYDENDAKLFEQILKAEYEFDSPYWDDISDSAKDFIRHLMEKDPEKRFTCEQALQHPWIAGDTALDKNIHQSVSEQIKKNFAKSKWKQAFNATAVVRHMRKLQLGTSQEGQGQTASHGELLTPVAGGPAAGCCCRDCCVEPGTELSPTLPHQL
Method: as §1

[3] = biological target: T3, SYK (Homo sapiens, UniProt P43405)
T3 construct: K562 cell pellets were thawed on ice and resuspended in cold Lysis buffer; endogenous in cells; host or cells: K562
Method: as §1

[4] = biological target: T4, PLK4 (Homo sapiens, UniProt O00444)
T4 construct: endogenous in cells; host or cells: K562
T4 sequence (O00444 1-970): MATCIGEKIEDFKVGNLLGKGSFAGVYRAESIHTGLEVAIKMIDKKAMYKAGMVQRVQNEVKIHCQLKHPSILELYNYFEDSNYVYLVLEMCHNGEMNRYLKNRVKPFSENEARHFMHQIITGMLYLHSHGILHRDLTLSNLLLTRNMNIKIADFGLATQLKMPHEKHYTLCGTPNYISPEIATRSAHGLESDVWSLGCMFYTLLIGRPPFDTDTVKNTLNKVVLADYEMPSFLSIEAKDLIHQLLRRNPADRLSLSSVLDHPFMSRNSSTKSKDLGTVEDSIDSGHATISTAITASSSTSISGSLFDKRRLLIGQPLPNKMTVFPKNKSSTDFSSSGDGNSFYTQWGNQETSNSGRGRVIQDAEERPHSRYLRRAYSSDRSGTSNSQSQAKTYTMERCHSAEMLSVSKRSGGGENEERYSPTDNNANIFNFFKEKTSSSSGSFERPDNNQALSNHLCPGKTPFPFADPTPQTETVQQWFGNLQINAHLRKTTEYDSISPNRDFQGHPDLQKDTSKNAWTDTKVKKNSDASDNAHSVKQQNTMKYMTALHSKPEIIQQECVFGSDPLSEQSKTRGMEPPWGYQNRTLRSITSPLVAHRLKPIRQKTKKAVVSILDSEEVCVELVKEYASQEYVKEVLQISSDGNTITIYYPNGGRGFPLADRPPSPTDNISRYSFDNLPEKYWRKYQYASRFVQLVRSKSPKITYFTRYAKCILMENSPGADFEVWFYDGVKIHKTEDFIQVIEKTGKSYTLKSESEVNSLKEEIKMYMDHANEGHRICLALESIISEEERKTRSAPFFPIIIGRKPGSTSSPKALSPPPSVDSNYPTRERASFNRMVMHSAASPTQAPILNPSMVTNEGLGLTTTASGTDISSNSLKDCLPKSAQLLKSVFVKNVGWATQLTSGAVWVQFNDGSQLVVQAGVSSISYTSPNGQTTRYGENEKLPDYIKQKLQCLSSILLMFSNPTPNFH
Method: as §1

[5] = biological target: T5, OBSCN (Homo sapiens, UniProt Q5VST9);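 on 0.001 uM KAM: median log10 fold change of treatment over DMSO control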;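 on 0.01 uM KAM: median log10 fold change of treatment over DMSO control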;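 on 0.1 uM KAM: median log10 fold change of treatment over DMSO control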;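 on 1 uM KAM: median log10 fold change of treatment over DMSO control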;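 on 10 uM KAM: median log10 fold change of treatment over DMSO control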
T5 construct: endogenous in cells; host or cells: K562
Method: as §1

[6] = biological target: T6, FGFR3 (Homo sapiens, UniProt P22607)
T6 construct: endogenous in cells; host or cells: K562
T6 sequence (P22607 23-806): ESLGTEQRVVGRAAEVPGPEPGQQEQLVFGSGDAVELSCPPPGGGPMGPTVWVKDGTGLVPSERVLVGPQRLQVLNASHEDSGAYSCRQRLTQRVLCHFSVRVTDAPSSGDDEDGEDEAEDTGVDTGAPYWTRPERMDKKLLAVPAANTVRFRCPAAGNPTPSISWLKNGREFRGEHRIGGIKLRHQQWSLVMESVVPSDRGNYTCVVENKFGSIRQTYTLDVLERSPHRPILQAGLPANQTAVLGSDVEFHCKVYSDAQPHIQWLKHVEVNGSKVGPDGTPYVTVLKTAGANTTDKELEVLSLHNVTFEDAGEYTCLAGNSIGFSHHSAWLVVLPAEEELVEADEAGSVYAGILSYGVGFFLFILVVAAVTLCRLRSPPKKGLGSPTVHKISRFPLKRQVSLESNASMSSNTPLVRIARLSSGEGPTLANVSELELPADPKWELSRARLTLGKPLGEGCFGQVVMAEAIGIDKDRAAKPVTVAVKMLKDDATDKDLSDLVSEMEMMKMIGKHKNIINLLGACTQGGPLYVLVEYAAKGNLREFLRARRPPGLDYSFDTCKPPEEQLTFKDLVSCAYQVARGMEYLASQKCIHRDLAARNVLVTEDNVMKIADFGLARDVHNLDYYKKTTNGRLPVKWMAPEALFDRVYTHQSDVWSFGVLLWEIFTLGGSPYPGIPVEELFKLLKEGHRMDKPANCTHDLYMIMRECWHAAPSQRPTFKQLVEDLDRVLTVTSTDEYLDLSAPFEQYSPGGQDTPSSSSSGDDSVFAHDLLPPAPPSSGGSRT
Method: as §1

[7] = biological target: T7, CDK12 (Homo sapiens, UniProt Q9NYV4)
T7 construct: endogenous in cells; host or cells: K562
Method: as §1

[8] = biological target: T8, KIT (Homo sapiens, UniProt P10721);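 on 0.001 uM KAM: median log10 fold change of treatment over DMSO control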;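 on 0.01 uM KAM: median log10 fold change of treatment over DMSO control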;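 on 0.1 uM KAM: median log10 fold change of treatment over DMSO control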;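 on 1 uM KAM: median log10 fold change of treatment over DMSO control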;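 on 10 uM KAM: median log10 fold change of treatment over DMSO control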
T8 construct: endogenous in cells; host or cells: K562 cells (combined S0.8 and P0.8 lysate)
T8 sequence (P10721 26-976): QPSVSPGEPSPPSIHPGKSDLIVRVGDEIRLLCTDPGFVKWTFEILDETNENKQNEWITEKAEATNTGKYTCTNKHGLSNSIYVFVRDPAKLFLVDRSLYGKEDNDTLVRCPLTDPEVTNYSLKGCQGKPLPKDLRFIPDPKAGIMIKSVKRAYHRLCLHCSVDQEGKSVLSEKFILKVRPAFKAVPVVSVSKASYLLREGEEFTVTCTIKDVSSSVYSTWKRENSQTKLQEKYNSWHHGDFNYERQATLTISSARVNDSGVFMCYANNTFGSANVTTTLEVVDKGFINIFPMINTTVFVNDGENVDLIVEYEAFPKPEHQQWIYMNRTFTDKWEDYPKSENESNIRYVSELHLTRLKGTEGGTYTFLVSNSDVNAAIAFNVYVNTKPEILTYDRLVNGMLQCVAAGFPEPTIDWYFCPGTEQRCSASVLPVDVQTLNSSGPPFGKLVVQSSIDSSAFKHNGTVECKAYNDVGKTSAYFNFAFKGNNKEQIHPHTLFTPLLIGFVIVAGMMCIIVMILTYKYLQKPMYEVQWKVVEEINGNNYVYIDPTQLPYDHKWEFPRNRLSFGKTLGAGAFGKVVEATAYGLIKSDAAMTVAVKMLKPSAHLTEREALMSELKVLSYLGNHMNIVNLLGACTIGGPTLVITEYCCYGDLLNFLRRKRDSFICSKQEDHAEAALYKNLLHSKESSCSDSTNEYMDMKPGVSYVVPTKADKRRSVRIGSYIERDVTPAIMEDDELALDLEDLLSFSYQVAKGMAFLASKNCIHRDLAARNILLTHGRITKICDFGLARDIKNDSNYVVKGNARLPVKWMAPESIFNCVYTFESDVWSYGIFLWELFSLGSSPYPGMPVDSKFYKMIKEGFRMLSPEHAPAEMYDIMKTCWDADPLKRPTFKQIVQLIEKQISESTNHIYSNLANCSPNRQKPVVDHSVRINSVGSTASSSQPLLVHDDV
Method: as §1

[9] = biological target: T9, CDC42BPA (Homo sapiens, UniProt Q5VT25);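 on 0.001 uM KAM: median log10 fold change of treatment over DMSO control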;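 on 0.01 uM KAM: median log10 fold change of treatment over DMSO control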;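 on 0.1 uM KAM: median log10 fold change of treatment over DMSO control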;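 on 1 uM KAM: median log10 fold change of treatment over DMSO control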;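 on 10 uM KAM: median log10 fold change of treatment over DMSO control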
T9 construct: endogenous in cells; host or cells: K562
T9 sequence (Q5VT25 whole entry): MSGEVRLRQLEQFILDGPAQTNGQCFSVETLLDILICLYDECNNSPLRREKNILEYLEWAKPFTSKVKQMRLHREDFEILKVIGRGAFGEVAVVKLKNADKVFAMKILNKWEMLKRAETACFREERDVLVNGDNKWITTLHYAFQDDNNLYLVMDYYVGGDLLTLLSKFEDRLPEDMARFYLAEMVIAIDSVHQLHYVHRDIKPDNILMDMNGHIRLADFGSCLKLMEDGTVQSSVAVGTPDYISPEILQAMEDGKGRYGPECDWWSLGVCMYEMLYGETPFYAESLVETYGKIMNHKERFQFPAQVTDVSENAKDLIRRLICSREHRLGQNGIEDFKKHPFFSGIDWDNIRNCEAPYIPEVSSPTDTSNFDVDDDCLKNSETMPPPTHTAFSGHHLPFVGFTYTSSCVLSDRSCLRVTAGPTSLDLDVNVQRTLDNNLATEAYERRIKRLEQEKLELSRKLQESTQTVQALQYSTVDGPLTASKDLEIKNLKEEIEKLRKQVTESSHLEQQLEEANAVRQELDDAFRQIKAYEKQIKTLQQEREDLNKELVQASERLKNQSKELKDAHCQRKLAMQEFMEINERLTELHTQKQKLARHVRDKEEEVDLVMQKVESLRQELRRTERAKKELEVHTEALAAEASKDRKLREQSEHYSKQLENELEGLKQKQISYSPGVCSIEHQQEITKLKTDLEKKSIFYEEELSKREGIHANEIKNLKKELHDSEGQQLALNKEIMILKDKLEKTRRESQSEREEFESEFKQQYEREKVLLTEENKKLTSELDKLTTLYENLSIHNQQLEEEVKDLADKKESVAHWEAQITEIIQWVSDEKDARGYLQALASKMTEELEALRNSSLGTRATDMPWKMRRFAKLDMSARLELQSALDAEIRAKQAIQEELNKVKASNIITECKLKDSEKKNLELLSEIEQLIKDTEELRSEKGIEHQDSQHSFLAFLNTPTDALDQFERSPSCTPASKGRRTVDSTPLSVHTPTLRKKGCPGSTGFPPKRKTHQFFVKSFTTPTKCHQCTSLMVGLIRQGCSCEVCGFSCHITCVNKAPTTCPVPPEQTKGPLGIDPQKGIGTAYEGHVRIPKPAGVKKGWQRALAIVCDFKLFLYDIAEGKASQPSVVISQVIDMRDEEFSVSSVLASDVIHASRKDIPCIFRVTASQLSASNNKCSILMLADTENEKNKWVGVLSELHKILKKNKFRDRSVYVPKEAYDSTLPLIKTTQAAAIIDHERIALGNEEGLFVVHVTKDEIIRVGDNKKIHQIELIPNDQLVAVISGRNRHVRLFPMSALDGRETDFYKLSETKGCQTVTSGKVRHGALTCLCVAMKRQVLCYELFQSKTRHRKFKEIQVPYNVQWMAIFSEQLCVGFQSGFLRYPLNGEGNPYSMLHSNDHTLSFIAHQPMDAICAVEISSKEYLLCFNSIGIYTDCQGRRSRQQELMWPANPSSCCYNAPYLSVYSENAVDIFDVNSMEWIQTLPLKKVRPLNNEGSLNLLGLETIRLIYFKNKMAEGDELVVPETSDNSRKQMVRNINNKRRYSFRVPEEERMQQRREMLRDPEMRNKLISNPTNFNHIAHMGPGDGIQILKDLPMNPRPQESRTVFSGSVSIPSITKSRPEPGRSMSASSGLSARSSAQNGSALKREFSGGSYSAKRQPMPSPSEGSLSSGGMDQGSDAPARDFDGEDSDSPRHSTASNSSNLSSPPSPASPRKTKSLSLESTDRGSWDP
Method: as §1

[10] = read-out: RB50 (the source's name)
[11] = KAM 0.001-10 uM, read-out: RB50 (the source's name)

N#CCc1ccc(Nc2nc(NCCCN)cc(Nc3cc(C4CC4)[nH]n3)n2)cc1 [KAM]
median Log10 fold change ([1]; 0.001 uM KAM): -0.05218 | median Log10 fold change ([1]; 0.01 uM KAM): -0.04172 | median Log10 fold change ([1]; 0.1 uM KAM): -0.1708 | median Log10 fold change ([1]; 1 uM KAM): -0.3888 | median Log10 fold change ([1]; 10 uM KAM): -0.5091 | IC50 [1, 10]: 566 nM | IC50 [2, 11]: 6470 nM | 0.001 uM KAM ([2]; relative to 0 uM KAM = 0): -0.0406 | 0.01 uM KAM ([2]; relative to 0 uM KAM = 0): 0.01937 | 0.1 uM KAM ([2]; relative to 0 uM KAM = 0): -0.06624 | 1 uM KAM ([2]; relative to 0 uM KAM = 0): -0.1636 | 10 uM KAM ([2]; relative to 0 uM KAM = 0): -0.3114 | median Log10 fold change ([3]; 0.001 uM KAM): -0.04062 | median Log10 fold change ([3]; 0.01 uM KAM): -0.03667 | median Log10 fold change ([3]; 0.1 uM KAM): -0.2061 | median Log10 fold change ([3]; 1 uM KAM): -0.3555 | median Log10 fold change ([3]; 10 uM KAM): -0.3656 | IC50 [3, 10]: 714 nM | median Log10 fold change ([4]; 0.001 uM KAM): -0.0157 | median Log10 fold change ([4]; 0.01 uM KAM): 0.006981 | median Log10 fold change ([4]; 0.1 uM KAM): -0.1724 | median Log10 fold change ([4]; 1 uM KAM): -0.3044 | median Log10 fold change ([4]; 10 uM KAM): -0.3267 | IC50 [4, 10]: 1400 nM | IC50 [5, 11]: > 10000 nM | 0.001 uM KAM ([5]; relative to 0 uM KAM = 0): -0.03363 | 0.01 uM KAM ([5]; relative to 0 uM KAM = 0): 0.02355 | 0.1 uM KAM ([5]; relative to 0 uM KAM = 0): -0.066 | 1 uM KAM ([5]; relative to 0 uM KAM = 0): -0.08935 | 10 uM KAM ([5]; relative to 0 uM KAM = 0): -0.04979 | median Log10 fold change ([6]; 0.001 uM KAM): 0.01443 | median Log10 fold change ([6]; 0.01 uM KAM): 0.001015 | median Log10 fold change ([6]; 0.1 uM KAM): -0.1738 | median Log10 fold change ([6]; 1 uM KAM): -0.319 | median Log10 fold change ([6]; 10 uM KAM): -0.3424 | IC50 [6, 10]: 1160 nM | median Log10 fold change ([7]; 0.001 uM KAM): 0.006765 | median Log10 fold change ([7]; 0.01 uM KAM): 0.002685 | median Log10 fold change ([7]; 0.1 uM KAM): -0.1288 | median Log10 fold change ([7]; 1 uM KAM): -0.2742 | median Log10 fold change ([7]; 10 uM KAM): -0.4096 | IC50 [7, 10]: 1570 nM | IC50 [8, 11]: > 10000 nM | 0.001 uM KAM ([8]; relative to 0 uM KAM = 0): -0.03484 | 0.01 uM KAM ([8]; relative to 0 uM KAM = 0): -0.02696 | 0.1 uM KAM ([8]; relative to 0 uM KAM = 0): -0.08182 | 1 uM KAM ([8]; relative to 0 uM KAM = 0): -0.1617 | 10 uM KAM ([8]; relative to 0 uM KAM = 0): -0.1565 | IC50 [9, 11]: > 10000 nM | 0.001 uM KAM ([9]; relative to 0 uM KAM = 0): -0.02138 | 0.01 uM KAM ([9]; relative to 0 uM KAM = 0): -0.0113 | 0.1 uM KAM ([9]; relative to 0 uM KAM = 0): -0.01108 | 1 uM KAM ([9]; relative to 0 uM KAM = 0): 0.04656 | 10 uM KAM ([9]; relative to 0 uM KAM = 0): -0.06135
